From patent US20250145606A1 (Arcus Biosciences, Inc., priority 2023, published 2025)

Experiments:
[1] = biological target: PDGFRα (Homo sapiens (Human), UniProt P16234); experiment: Inhibition of PDGFRα kinase activity (HTRF KinEASE-TK); conditions: biochemical, HTRF KinEASE-TK
Summary of the method: (§1)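 Phosphorylation of biotinylated TK peptide read by HTRF (665/620 nm ratio) after 120 min at rt, following 1 h enzyme–compound preincubation. ATP (2× mix): 20 μM CSF1R, 16 μM c-Kit, 40 μM PDGFRβ, 1 μM PDGFRα; MgCl2 10 mM except c-Kit 5 mM. 22-point 1:2 titration; four-parameter IC50.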

[2] = biological target: c-Kit (Homo sapiens (Human), UniProt P10721); experiment: Inhibition of c-Kit kinase activity (HTRF KinEASE-TK); assay type: biochemical; conditions: biochemical, HTRF KinEASE-TK
Summary of the method: as §1

[3] = system: Phospho-KIT (Y703) in M07e cells; experiment: Phospho-KIT (Y703) cellular assay in M07e cells; assay type: cell-based; conditions: M-07e; Phospho-KIT (Y703), M07e cells; read-out: M07e Cell IC50
Summary of the method: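 Serum-starved M07e cells preincubated 50 min at 37° C with 11-point half-log compound titration, then stimulated 10 min with SCF at 90.9 ng/mL final. Fixed, permeabilized cells stained for phospho-KIT Y703 and read by flow cytometry (live-gated geometric mean); IC50 by 4-parameter fit normalized to DMSO and positive control.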

[4] = biological target: PDGFRβ (Homo sapiens (Human), UniProt P09619); experiment: Inhibition of PDGFRβ kinase activity (HTRF KinEASE-TK); conditions: biochemical, HTRF KinEASE-TK
Summary of the method: as §1

[5] = biological target: CSF1R (Homo sapiens (Human), UniProt P07333); experiment: Inhibition of CSF1R kinase activity (HTRF KinEASE-TK); conditions: biochemical, HTRF KinEASE-TK
Summary of the method: as §1

[6] = biological target: FLT3 (Homo sapiens (Human), UniProt P36888); experiment: Inhibition of FLT3 kinase activity (HTRF KinEASE-TK); assay type: biochemical; conditions: biochemical, HTRF KinEASE-TK
Summary of the method: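 FLT3 tyrosine kinase activity was measured with the HTRF KinEASE-TK kit by following phosphorylation of a biotinylated TK peptide. After the 45 min reaction, 10 μL of detection mix was added: 0.2 μM (2×) Streptavidin-XL665 and 2 μM (2×) TK-Antibody-Cryptate in detection buffer. After 60 min, TR-FRET was read on an Envision as the 665 nm/620 nm emission ratio with 320 nm excitation.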

Sequence of c-Kit (P10721 26-976): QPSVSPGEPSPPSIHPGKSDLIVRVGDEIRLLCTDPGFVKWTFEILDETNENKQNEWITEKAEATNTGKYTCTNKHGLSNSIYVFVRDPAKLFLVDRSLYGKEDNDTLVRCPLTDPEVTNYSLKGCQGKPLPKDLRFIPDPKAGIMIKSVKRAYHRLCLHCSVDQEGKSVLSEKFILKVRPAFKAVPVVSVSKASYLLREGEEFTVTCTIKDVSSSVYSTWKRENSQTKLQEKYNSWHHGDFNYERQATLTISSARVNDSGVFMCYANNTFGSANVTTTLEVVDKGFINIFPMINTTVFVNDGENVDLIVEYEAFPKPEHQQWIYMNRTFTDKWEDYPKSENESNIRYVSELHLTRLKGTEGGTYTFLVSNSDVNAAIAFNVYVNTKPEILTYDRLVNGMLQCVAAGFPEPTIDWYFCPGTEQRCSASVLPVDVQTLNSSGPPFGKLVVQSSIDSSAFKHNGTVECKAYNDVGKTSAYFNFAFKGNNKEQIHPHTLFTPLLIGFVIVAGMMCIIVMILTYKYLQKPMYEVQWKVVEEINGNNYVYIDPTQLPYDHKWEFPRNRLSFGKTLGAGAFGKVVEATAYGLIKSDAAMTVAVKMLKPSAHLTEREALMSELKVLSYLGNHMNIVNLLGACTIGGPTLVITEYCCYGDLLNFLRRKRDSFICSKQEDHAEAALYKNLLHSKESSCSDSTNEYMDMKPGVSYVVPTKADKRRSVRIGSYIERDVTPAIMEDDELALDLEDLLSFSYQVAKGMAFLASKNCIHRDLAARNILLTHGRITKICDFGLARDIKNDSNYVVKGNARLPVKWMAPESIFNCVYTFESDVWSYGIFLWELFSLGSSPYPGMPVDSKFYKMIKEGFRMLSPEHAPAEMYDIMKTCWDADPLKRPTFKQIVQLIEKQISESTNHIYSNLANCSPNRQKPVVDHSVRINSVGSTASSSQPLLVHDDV
Sequence of PDGFRα (P16234 24-1089): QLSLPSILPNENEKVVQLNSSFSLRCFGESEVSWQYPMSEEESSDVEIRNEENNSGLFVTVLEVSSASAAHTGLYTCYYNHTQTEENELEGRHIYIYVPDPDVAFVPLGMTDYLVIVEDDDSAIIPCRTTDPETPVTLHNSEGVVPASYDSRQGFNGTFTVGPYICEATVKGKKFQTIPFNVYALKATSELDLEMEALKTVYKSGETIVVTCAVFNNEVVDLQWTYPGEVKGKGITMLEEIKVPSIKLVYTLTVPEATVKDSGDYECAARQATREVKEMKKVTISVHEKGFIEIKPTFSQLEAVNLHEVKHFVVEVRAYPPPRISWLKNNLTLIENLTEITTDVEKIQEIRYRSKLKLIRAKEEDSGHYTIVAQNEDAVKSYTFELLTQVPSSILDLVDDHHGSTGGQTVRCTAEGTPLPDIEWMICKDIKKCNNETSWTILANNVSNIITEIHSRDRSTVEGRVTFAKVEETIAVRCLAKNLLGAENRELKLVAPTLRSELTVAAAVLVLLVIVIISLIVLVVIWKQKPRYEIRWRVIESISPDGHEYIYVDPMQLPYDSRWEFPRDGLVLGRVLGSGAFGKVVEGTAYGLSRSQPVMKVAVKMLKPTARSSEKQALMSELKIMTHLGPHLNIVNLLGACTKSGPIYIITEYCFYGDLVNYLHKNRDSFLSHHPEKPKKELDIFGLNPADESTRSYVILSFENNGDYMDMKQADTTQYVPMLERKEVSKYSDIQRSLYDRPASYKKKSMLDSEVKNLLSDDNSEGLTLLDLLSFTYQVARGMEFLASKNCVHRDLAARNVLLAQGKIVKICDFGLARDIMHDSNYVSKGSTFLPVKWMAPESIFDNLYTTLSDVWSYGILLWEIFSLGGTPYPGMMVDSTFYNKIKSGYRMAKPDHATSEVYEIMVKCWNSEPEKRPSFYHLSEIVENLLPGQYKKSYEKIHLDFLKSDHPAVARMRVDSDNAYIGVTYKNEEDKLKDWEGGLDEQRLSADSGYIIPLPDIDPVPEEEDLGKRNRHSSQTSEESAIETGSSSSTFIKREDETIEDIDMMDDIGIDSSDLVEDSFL
Sequence of FLT3 (P36888 27-993): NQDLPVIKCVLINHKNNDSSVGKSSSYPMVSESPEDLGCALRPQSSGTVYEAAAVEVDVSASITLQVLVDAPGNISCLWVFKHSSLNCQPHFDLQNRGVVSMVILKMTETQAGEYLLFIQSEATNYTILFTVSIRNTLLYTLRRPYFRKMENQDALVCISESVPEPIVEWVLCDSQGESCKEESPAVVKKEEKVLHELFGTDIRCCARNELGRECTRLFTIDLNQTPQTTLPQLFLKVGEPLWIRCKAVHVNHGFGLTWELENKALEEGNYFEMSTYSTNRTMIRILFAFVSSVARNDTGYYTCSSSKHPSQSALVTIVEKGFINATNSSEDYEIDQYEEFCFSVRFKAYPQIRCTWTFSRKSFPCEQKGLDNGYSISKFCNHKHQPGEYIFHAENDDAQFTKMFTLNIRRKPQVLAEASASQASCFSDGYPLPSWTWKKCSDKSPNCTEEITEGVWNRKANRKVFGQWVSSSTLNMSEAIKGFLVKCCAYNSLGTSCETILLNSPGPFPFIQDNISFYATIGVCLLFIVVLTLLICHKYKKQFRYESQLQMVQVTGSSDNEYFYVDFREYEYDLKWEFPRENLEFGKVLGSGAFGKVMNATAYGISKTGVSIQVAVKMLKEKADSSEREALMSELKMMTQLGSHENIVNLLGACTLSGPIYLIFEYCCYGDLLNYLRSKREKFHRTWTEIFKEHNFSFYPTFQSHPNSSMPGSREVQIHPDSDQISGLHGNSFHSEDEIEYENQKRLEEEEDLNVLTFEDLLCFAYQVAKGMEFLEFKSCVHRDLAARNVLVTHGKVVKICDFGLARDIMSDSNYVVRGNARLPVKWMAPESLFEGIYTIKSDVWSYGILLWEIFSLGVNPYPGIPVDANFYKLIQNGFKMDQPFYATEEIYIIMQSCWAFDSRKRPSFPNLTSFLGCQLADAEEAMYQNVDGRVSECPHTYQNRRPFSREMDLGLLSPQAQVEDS
Sequence of CSF1R (P07333 20-972): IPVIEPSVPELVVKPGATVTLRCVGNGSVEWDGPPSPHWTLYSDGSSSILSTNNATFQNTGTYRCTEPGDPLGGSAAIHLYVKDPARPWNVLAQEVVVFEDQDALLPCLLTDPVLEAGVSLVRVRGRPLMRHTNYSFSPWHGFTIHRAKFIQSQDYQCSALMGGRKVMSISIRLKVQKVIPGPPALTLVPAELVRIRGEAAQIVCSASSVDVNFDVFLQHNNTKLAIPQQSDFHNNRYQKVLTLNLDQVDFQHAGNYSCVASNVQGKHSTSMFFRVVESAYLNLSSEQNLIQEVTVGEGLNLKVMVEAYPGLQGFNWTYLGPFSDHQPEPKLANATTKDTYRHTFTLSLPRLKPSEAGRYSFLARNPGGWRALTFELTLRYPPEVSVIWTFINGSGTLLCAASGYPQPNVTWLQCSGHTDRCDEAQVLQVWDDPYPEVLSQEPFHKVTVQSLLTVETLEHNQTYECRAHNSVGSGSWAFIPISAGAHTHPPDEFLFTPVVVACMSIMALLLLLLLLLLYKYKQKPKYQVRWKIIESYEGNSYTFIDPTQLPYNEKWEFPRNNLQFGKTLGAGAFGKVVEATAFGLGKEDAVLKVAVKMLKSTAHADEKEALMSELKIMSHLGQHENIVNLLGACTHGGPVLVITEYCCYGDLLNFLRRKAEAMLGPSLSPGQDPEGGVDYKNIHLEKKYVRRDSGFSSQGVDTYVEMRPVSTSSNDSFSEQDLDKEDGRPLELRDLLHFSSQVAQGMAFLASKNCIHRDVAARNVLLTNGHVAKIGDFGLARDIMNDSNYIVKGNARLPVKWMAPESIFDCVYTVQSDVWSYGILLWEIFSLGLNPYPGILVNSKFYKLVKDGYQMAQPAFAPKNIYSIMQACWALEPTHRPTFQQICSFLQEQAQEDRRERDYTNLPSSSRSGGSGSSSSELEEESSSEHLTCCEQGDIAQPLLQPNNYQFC
Sequence of PDGFRβ (P09619 33-1106): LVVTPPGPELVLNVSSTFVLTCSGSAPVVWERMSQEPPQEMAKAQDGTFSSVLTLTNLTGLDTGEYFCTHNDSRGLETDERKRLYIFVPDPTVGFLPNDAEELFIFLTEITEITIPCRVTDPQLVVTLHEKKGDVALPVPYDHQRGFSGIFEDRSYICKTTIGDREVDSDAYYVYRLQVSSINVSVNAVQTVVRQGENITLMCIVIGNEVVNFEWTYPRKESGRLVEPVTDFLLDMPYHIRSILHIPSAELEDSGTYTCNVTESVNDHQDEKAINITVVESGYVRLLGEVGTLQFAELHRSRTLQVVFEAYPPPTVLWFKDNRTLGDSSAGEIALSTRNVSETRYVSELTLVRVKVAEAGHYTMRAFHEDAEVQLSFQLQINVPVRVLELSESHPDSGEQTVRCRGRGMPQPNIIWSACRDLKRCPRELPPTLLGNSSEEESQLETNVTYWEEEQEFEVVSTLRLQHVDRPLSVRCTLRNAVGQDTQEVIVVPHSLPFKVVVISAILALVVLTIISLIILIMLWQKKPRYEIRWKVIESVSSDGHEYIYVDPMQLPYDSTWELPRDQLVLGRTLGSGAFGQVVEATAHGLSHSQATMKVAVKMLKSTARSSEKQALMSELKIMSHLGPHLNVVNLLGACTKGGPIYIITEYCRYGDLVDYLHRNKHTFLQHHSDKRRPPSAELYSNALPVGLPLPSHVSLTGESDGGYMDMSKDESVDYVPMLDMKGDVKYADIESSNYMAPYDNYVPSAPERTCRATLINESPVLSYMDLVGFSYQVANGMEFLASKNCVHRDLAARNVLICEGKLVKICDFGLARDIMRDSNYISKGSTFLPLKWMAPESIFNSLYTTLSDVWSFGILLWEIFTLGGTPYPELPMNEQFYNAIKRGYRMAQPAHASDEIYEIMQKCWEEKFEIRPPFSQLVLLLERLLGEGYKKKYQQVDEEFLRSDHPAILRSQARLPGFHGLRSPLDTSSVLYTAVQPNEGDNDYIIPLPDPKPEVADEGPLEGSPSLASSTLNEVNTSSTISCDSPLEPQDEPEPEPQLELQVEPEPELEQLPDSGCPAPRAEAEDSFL

Structure (SMILES)	IC50 [1]	IC50 [2]	IC50 [3]	IC50 [4]	IC50 [5]	IC50 [6]
Cc1cc(F)c(C(=O)Nc2ccn(-c3ccccc3)n2)cc1NC(=O)c1cnc(N)s1 [Example 172, 2-Amino-N-[4-fluoro-2-methyl-5-[(1-phenylpyrazol-3-yl)carbamoyl]phenyl]-1,3-thiazole-5-carboxamide]	> 1000 nM	< 100 nM	< 100 nM	> 1000 nM	> 1000 nM	> 1000 nM
CCn1ccc(NC(=O)c2cc(NC(=O)c3cnc(N)s3)c(C)cc2F)n1 [Example 179, 2-Amino-N-[5-[(1-ethylpyrazol-3-yl)carbamoyl]-4-fluoro-2-methylphenyl]-1,3-thiazole-5-carboxamide]	> 1000 nM	< 100 nM	< 100 nM	> 1000 nM	> 1000 nM	> 1000 nM
Cc1cc(F)c(C(=O)Nc2ccn(C(F)F)n2)cc1NC(=O)c1cnc(N)s1 [Example 181, 2-Amino-N-[5-[[1-(difluoromethyl)pyrazol-3-yl]carbamoyl]-4-fluoro-2-methylphenyl]-1,3-thiazole-5-carboxamide]	> 1000 nM	< 100 nM	< 100 nM	> 1000 nM	> 1000 nM	> 1000 nM
CO[C@H]1C[C@@H](n2ccc(NC(=O)c3cc(NC(=O)c4cnc(N)s4)c(C)cc3F)n2)C1 [Example 185, 2-Amino-N-[4-fluoro-5-[[1-(cis-3-methoxycyclobutyl)pyrazol-3-yl]carbamoyl]-2-methylphenyl]-1,3-thiazole-5-carboxamide]	> 1000 nM	< 100 nM	< 100 nM	> 1000 nM	> 1000 nM	> 1000 nM
CO[C@H]1C[C@H](n2ccc(NC(=O)c3cc(NC(=O)c4cnc(N)s4)c(C)cc3F)n2)C1 [Example 187, 2-Amino-N-[4-fluoro-5-[[1-(trans-3-methoxycyclobutyl)pyrazol-3-yl]carbamoyl]-2-methylphenyl]-1,3-thiazole-5-carboxamide]	> 1000 nM	< 100 nM	< 100 nM	> 1000 nM	> 1000 nM	> 1000 nM
COc1ccnc(NC(=O)c2cc(NC(=O)c3cnc(N)s3)c(C)cc2F)c1 [Example 189, 2-Amino-N-[4-fluoro-5-[(4-methoxypyridin-2-yl)carbamoyl]-2-methylphenyl]-1,3-thiazole-5-carboxamide]	> 1000 nM	< 100 nM	< 100 nM	100 to 1000 nM	100 to 1000 nM	> 1000 nM
Cc1cc(F)c(C(=O)Nc2ccn([C@H]3CCOC3)n2)cc1NC(=O)c1cnc(N)s1 [Example 191, 2-Amino-N-[4-fluoro-2-methyl-5-[[1-[(3S)-oxolan-3-yl]pyrazol-3-yl]carbamoyl]phenyl]-1,3-thiazole-5-carboxamide]	> 1000 nM	< 100 nM	< 100 nM	> 1000 nM	> 1000 nM	> 1000 nM
Cc1cc(F)c(C(=O)NCC2(F)CCC2)cc1NC(=O)c1cnc(N)s1 [Example 192, 2-amino-N-[4-fluoro-5-[(1-fluorocyclobutyl)methylcarbamoyl]-2-methylphenyl]-1,3-thiazole-5-carboxamide]	> 1000 nM	< 100 nM	< 100 nM	100 to 1000 nM	> 1000 nM	> 1000 nM
Cc1cc(F)c(C(=O)N[C@H]2CCOC2)cc1NC(=O)c1cnc(N)s1 [Example 194, 2-Amino-N-[4-fluoro-2-methyl-5-[[(3S)-oxolan-3-yl]carbamoyl]phenyl]-1,3-thiazole-5-carboxamide]	> 1000 nM	< 100 nM	100 to 1000 nM	> 1000 nM	> 1000 nM	> 1000 nM
Cc1cc(F)c(C(=O)Nc2ccc(COC(C)C)cn2)cc1NC(=O)c1cnc(N)s1 [Example 195, 2-Amino-N-[4-fluoro-2-methyl-5-[[5-(propan-2-yloxymethyl)pyridin-2-yl]carbamoyl]phenyl]-1,3-thiazole-5-carboxamide]	> 1000 nM	< 100 nM	< 100 nM	> 1000 nM	> 1000 nM	100 to 1000 nM
